Our source for the EC50 values is patent US11319298B2 (Merck Sharp & Dohme Corp., priority 2016, dated 2022).

This assay deals with T1, human M4 muscarinic acetylcholine receptor (Homo sapiens, UniProt P08173).
T1 construct: expressed in transfected cells; host or cells: CHO-K1
T1 sequence (P08173 1-479): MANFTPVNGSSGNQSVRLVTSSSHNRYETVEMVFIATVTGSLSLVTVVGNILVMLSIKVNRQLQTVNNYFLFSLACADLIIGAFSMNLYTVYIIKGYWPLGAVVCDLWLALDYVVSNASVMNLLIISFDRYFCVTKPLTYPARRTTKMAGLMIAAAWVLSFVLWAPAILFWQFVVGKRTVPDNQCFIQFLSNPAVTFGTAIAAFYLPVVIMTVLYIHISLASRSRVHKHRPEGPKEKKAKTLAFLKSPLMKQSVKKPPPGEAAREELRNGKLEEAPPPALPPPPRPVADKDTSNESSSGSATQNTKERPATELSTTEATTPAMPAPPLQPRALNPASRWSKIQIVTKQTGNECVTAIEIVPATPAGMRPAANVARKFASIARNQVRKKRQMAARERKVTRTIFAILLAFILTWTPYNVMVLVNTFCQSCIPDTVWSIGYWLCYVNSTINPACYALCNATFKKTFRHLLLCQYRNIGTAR
The assay is described as follows: human FLIPR-based M4 PAM assay, CHO-K1 cells stably transfected with human M4 receptor and chimeric G-protein Gαqi5. Type of assay: cell-based. Particulars: inflection point (IP) of dose response curve; acetylcholine added at 20% of maximum response; CHO-K1 human M4/Gαqi5, FLIPR Tetra. As for the experimental part:
In a typical experiment the M4 muscarinic acetylcholine receptor modulating activity of the compounds of the present invention was determined in accordance with the following experimental method. CHO-K1 cells stably transfected with human M4 receptor and chimeric G-protein Gαqi5 (Coward P, et al., Analytical Biochemistry, 270:242-248 (1999)) are thawed from liquid N2 storage, resuspended in growth medium, plated in black, clear bottom 384 well plates, and incubated 16-20 hours at 37° C., 5% CO2. On the day of assay, growth medium is removed, the cells are washed 2 times with wash buffer, and cells are incubated in dye loading buffer at 37° C., 5% CO2 for ˜1 hour. Following dye loading the cell plates are placed in a FLIPR Tetra instrument and while monitoring dye fluorescence (excitation […]), 10 uL of test substance at increasing concentrations is added, and fluorescence values are recorded for 4 min. Next, 10 uL of acetylcholine is added (final concentration calculated so as to achieve 20% of the maximum acetycholine response), and the fluorescence reading is continued for 3.5 min. In some cases, a third addition of acetylcholine (final concentration calculated to achieve 70% of the maximal acetylcholine response) is performed. The resulting dose response curves are fit to a 4 parameter logistic equation and the final result is determined as the inflection point (IP) of the curve
CHO-K1 cells stably transfected with human M4 receptor and chimeric G-protein Gαqi5 are thawed from liquid N2 storage, resuspended in growth medium, plated in black, clear bottom 384 well plates, and incubated 16-20 hours at 37° C., 5% CO2.
On the day of assay, growth medium is removed, the cells are washed 2 times with wash buffer, and cells are incubated in dye loading buffer at 37° C., 5% CO2 for ˜1 h. Following dye loading the cell plates are placed in a FLIPR Tetra instrument and while monitoring dye fluorescence ([…]), 10 uL of test substance at increasing concentrations is added, and fluorescence values are recorded for 4 min. Next, 10 uL of acetylcholine is added (final concentration calculated so as to achieve 20% of the maximum acetycholine response), and the fluorescence reading is continued for 3.5 min. In some cases, a third addition of acetylcholine (final concentration calculated to achieve 70% of the maximal acetylcholine response) is performed.
As for `Cc1c(Cl)nc(CO)nc1N1CCC(Oc2ccc3nonc3c2)CC1` [Example 5, (4-(4-(benzo[c][1,2,5]oxadiazol-5-yloxy)piperidin-1-yl)-6-chloro-5-methylpyrimidin-2-yl)methanol], it took 766 nM to reach a half-maximal effect (EC50). `COc1ccc(OC2CCN(c3ncnc(-c4cccnc4)c3C)CC2)cn1` [Example 251, 4-(4-((6-methoxypyridin-3-yl)oxy)piperidin-1-yl)-5-methyl-6-(pyridin-3-yl)pyrimidine] had a concentration for a half-maximal effect (EC50) of 1440 nM. Then `COc1ccc(OC2CCN(c3ncnc(-c4ccc(F)nc4)c3C)CC2)cn1` [Example 246, 4-(6-fluoropyridin-3-yl)-6-(4-((6-methoxypyridin-3-yl)oxy)piperidin-1-yl)-5-methylpyrimidine], with 633 nM; and `COc1ccc(OC2CCN(c3nc(C(=O)N[C@H]4CCCc5ccccc54)nc(Cl)c3C)CC2)cn1` [Example 224, (S)-4-chloro-6-(4-((6-methoxypyridin-3-yl)oxy)piperidin-1-yl)-5-methyl-N-(1,2,3,4-tetrahydronaphthalen-1-yl)pyrimidine-2-carboxamide], with 4850 nM. Turning to `Cc1cc(C(=O)NC2C3CC2C3)nnc1N1CCC(Oc2ccc3c(c2)C(=O)N(C)C3)CC1` (stereo not drawn) [Example 157, N-bicyclo[1.1.1]pent-2-yl-5-methyl-6-{4-[(2-methyl-3-oxo-2,3-dihydro-1H-isoindol-5-yl)oxy]piperidin-1-yl}pyridazine-3-carboxamide], the EC50 amounted to 277 nM. Then `Cc1ncc(C)c(N2CC[C@H](Oc3cccc(C#N)c3)[C@@H](F)C2)n1` [Example 83, 3-(((3S,4S)-1-(2,5-dimethylpyrimidin-4-yl)-3-fluoropiperidin-4-yl)oxy)benzonitrile], with 475 nM; and `CCOC(=O)c1cc(C)c(N2CCC(Oc3cccc(C#N)c3)CC2)nn1` [Example 105, ethyl 6-(4-(3-cyanophenoxy)piperidin-1-yl)-5-methylpyridazine-3-carboxylate], with 58 nM; and `COc1ccc(OC2CCN(c3nnc(C(=O)NCc4ccncc4)cc3C)CC2)cn1` [Example 109, 6-{4-[(6-methoxypyridin-3-yl)oxy]piperidin-1-yl}-5-methyl-N-(pyridin-4-ylmethyl)pyridazine-3-carboxamide], with 34 nM. The value for `COc1ccc(O[C@@H]2CCN(c3nnc(C(=O)NCc4ccncc4)cc3C)C[C@@H]2F)cn1` [Example 125, 6-{(3S,4R)-3-fluoro-4-[(6-methoxypyridin-3-yl)oxy]piperidin-1-yl}-5-methyl-N-(pyridin-4-ylmethyl)pyridazine-3-carboxamide] was 102 nM. Then `COc1ccc(OC2CCN(c3nc(C(=O)NC45CC(C4)C5)nc(Cl)c3C)CC2)cn1` [Example 210, N-(bicyclo[1.1.1]pentan-1-yl)-4-chloro-6-(4-((6-methoxypyridin-3-yl)oxy)piperidin-1-yl)-5-methylpyrimidine-2-carboxamide], with 592 nM.

`COc1ccc(OC2CCN(c3nc(CO)nc(Cl)c3C)CC2)cn1` [Example 68, (4-chloro-6-(4-((6-methoxypyridin-3-yl)oxy)piperidin-1-yl)-5-methylpyrimidin-2-yl)methanol] returned an EC50 of 126 nM. The compound `COc1ccc(OC2CCN(c3nc(C(N)=O)nc(Br)c3C)CC2)cn1` [Example 225A, 4-bromo-6-(4-((6-methoxypyridin-3-yl)oxy)piperidin-1-yl)-5-methylpyrimidine-2-carboxamide] showed an EC50 of 62 nM. `Cc1c(Cl)nc(CO)nc1N1CCC(Oc2ccc3ncn(C)c(=O)c3c2)CC1` [Example 6, 6-((1-(6-chloro-2-(hydroxymethyl)-5-methylpyrimidin-4-yl)piperidin-4-yl)oxy)-3-methylquinazolin-4(3H)-one] showed an EC50 of 976 nM. Then `COc1ccc(OC2CCN(c3nnc(C(=O)NC4CCNC4=O)cc3C)CC2)cn1` (stereo not drawn) [Example 180, 6-{4-[(6-methoxypyridin-3-yl)oxy]piperidin-1-yl}-5-methyl-N-(2-oxopyrrolidin-3-yl)pyridazine-3-carboxamide], with 808 nM. The value for `COc1ccc(OC2CCN(c3nc(C)nc(Cl)c3C)CC2)cn1` [Example 1, 4-Chloro-6-(4-((6-methoxypyridin-3-yl)oxy)piperidin-1-yl)-2,5-dimethylpyrimidine] was 191 nM. `Cc1c(Cl)nc(CO)nc1N1CCC(Oc2ccc3c(c2)CCCC3=O)CC1` [Example 36, 6-((1-(6-chloro-2-(hydroxymethyl)-5-methylpyrimidin-4-yl)piperidin-4-yl)oxy)-3,4-dihydronaphthalen-1(2H)-one] yielded an EC50 of 222 nM. The value for `Cc1cc(C(=O)N2CCc3snc(-c4cccnc4)c3C2)nnc1N1CCC(Oc2cccc(C#N)c2)CC1` [Example 204, 3-[(1-{4-methyl-6-[(3-pyridin-3-yl-6,7-dihydroisothiazolo[4,5-c]pyridin-5(4H)-yl)carbonyl]pyridazin-3-yl}piperidin-4-yl)oxy]benzonitrile] was 1150 nM; that for `Cc1cc(C(=O)NC2CCc3cccnc3C2)nnc1N1CCC(Oc2cccc(C#N)c2)CC1` (stereo not drawn) [Example 160, 6-[4-(3-cyanophenoxy)piperidin-1-yl]-5-methyl-N-(5,6,7,8-tetrahydroquinolin-7-yl)pyridazine-3-carboxamide] was 295 nM; that for `COc1ccc(OC2CCN(c3nnc(C(=O)NCc4nncs4)cc3C)CC2)cn1` [Example 113, 6-{4-[(6-methoxypyridn-3-yl)oxy]piperidin-1-yl}-5-methyl-N-(1,3,4-thiadiazol-2-ylmethyl)pyridazine-3-carboxamide] was 44 nM. The value for `Cc1cc(C(=O)NCc2ccncc2)nnc1N1CCC(Oc2cnn(CC3CC3)c2)CC1` [Example 39, 6-(4-((1-(cyclopropylmethyl)-1H-pyrazol-4-yl)oxy)piperidin-1-yl)-5-methyl-N-(pyridin-4-ylmethyl)pyridazine-3-carboxamide] was 278 nM. The value for `COc1ccc(OC2CCN(c3nnc(C(=O)N[C@H]4CCc5ccccc5C4)cc3C)CC2)cn1` [Example 165B, (S)-6-{4-[(6-methoxypyridin-3-yl)oxy]piperidin-1-yl}-5-methyl-N-(1,2,3,4-tetrahydronapthalen-2-yl)pyridazine-3-carboxamide] was 527 nM; that for `Cc1c(Cl)nc(CO)nc1N1CCC(Oc2ccc3c(c2)COC3)CC1` [Example 94, (4-chloro-6-(4-((1,3-dihydroisobenzofuran-5-yl)oxy)piperidin-1-yl)-5-methylpyrimidin-2-yl)methanol] was 34 nM; that for `COc1ccc(OC2CCN(c3nc(C(=O)NC4CNC4)nc(Cl)c3C)CC2)cn1` [Example 215, N-(azetidin-3-yl)-4-chloro-6-(4-((6-methoxypyridin-3-yl)oxy)piperidin-1-yl)-5-methylpyrimidine-2-carboxamide] was 835 nM. As for `COc1ccc(OC2CCN(c3nnc(C(=O)NCc4ccccc4C#N)cc3C)CC2)cn1` [Example 178, N-(2-cyanobenzyl)-6-{4-[(6-methoxypyridin-3-yl)oxy]piperidin-1-yl}-5-methylpyridazine-3-carboxamide], the EC50 is 724 nM. The value for `Cc1cc(C(=O)NCc2ccncc2)nnc1N1CCC(Oc2cccnc2)CC1` [Example 122, 5-methyl-N-(pyridin-4-ylmethyl)-6-[4-(pyridin-3-yloxy)piperidin-1-yl]pyridazine-3-carboxamide] was 101 nM; that for `COc1ccc(OC2CCN(c3nnc(C(=O)NCc4ccccc4OC)cc3C)CC2)cn1` [Example 158, N-(2-methoxybenzyl)-6-{4-[(6-methoxypyridin-3-yl)oxy]piperidin-1-yl}-5-methylpyridazine-3-carboxamide] was 282 nM; that for `COc1ccc(OC2CCN(c3ncnc(N4CC5(COC5)C4)c3C)CC2)cn1` [Example 233, 6-(6-(4-((6-methoxypyridin-3-yl)oxy)piperidin-1-yl)-5-methylpyrimidin-4-yl)-2-oxa-6-azaspiro[3.3]heptane] was 2100 nM.
